In patent US20100240656A1, “COMPOUNDS AS HSP90 INHIBITORS” (ORYZON GENOMICS, S.A., priority 2007, published 2010):
pEC50: −log10 of the molar value.

Legend:
[1] = tested on: HCT-116; experiment: Cell growth inhibition by AlamarBlue method, HCT-116; format: cell-based; conditions: Homo sapiens; HCT-116, 72 hours; read-out: Cell growth inhibition values (EC50) obtained with AlamarBlue method
Method: The human colon cancer cell line HCT-116 and the human breast cell lines MCF-7 and SKBr3 were from the American Type Culture Collection (ATCC; CCL-247, HTB-22 and HTB-30, respectively).
The HCT-116 and SKBr3 cell lines were maintained in DMEM GlutaMAX (Invitrogen) supplemented with 10% fetal calf serum and the MCF-7 cell line was maintained in RPMI1640 GlutaMAX (Invitrogen) containing 1 mM sodium pyruvate and 10% fetal calf serum. Cells were grown in a humidified incubator at 37° C. in 5% CO2
Cells were plated in 96-well plates (Costar, 3596) at a density of 6000 cells/well in 50 μL medium 24 h before addition of the compounds. Compounds were then added in 8 concentrations, each in triplicate (dilution series of 1 to 3). To do so, a compound-dilution plate at 200× the screening concentrations was prepared in DMSO 100% (Sigma, 154938). Then, 1.7 μL of the 200× diluted compounds were transferred to a new plate and 170 μL of media were added and mixed with the pipette (plate at 2×). Columns 11 and 12 of this plate (controls) were filled with 1% DMSO in cell media (i.e. 1.7 μL DMSO and 170 μL cell media). Finally, 50 μL of this intermediate plate at 2× were transferred to the plate containing the seeded cells and slowly shaken manually. Cells were grown as described above. AlamarBlue viability assay (Biosource, Invitrogen, DAL1100) was performed 72 hours later following manufacturer's protocol. In brief, AlamarBlue diluted in media was added to cells to have a 5% solution (a 2× solution was prepared in media and 100 μL of this solution were transferred to each well, i.e. final volume of 200 μL). Cells were incubated at 37° C., 3 hours and at room temperature for an additional 30 min. Cells with no compound and, cells with no compound and lysed with triton X-100 (30 μL/well added 10 min before treatment with AlamarBlue) were used as controls (6 replicates of each). Fluorescence was monitored at 530 nm excitation and 590 nm emission wavelengths. Results were quantified using ELx800 Universal Microplate Reader (Bio-Tek Instruments, Inc.). EC50 were calculated as the dose of compound required to inhibit cell growth by 50%.

[2] = tested on: MCF-7; experiment: Cell proliferation by MTT method, MCF-7; format: cell-based; conditions: Homo sapiens
Method: The objective of this study was to determine the influence of the compounds on cell proliferation of K-562, A-549, MCF-7, HeLa, WI-38 by MTT method. The compounds were tested over a three-fold dilution series in triplicate for the determination of EC50 of their influence on cell proliferation.
The assay is based on the cleavage of the yellow tetrazolium salt MTT into purple formazan by metabolically active cells. The MTT formazan crystals are insoluble in aqueous solution, but may be solubilized by adding the 10% SDS, then incubating the plates overnight in a humidified atmosphere (e.g., 37° C., 5% CO2). The solubilized formazan product can be photometrically quantitated using Tecan reader. An increase in the number of living cells results in an increase of total metabolic activity, which leads to a stronger color formation.
EC50 values are defined as the compound concentration at which 50% of reaction product is formed.
Test compounds were dissolved to 10 mM in 100% DMSO.
In the day of the experiment cells were seeded into all wells of 96-well plates. Serial dilution of compounds was performed in a separate 96-well plate at 20 times final assay concentration in cell culture medium (DMEM with 10% Fetal Bovine Serum). 5 μl of compound was transferred to 96-well plate containing seeded cells in cell culture medium (final total volume=100 μl). Cells were cultured in the presence of the respective test substances in the 96-well plate at 37° C. in a humidified 5% CO2 incubator for a certain period of time (24, 72 or 120 hours). Then 5 μL of thiazolyl blue tetrazolium bromide (MTT) 5 mg/mL was added to the cells and the cells were reincubated 4 hours in a humidified 5% CO2 incubator. Then 10% SDS was added into the each well. The reaction product was quantified by measuring the absorbance at 568 nm using a scanning multiwell spectrophotometer Tecan. The developed color and thereby the absorbance values directly correlate to the number of the living cells.
The data were analyzed using Microsoft Excel 2000, GraphPad Prism 3.03.
K 562 (human, chronic myelongenous leukemia), A 549 (human, lung carcinoma), MCF-7 (human, breast adenocarcinoma), Hela (human, cervix, carcinoma, epitheloid), WI-38 (human, embryonic lung)

[3] = MCF7, 24 h, MCF-7, incubation 1 day
[4] = MCF7, 72 h, MCF-7, incubation 3 days
[5] = MCF7, 120 h, MCF-7, incubation 5 days

| pEC50 [1] | pEC50 [2, 3] | pEC50 [2, 4] | pEC50 [2, 5] | SMILES |
| --- | --- | --- | --- | --- |
| 4.63 | < 4.00 | 4.76 | 4.78 | NCCCCCn1c(Sc2cc3c(cc2I)OCO3)nc(C(N)=O)c1N [Example 6, 5-amino-1-(5-amino-pentyl)-2-(6-iodo-benzo[1,3]dioxol-5-ylsulfanyl)-1H-imidazole-4-carboxamide] |
| 4.74 | < 4.00 | 5.00 | 4.93 | CCCCn1c(Sc2cc3c(cc2I)OCO3)nc(C(N)=O)c1N [Example 10, 5-amino-1-butyl-2-(6-iodo-benzo[1,3]dioxol-5-ylsulfanyl)-1H-imidazole-4-carboxamide] |
